Key:
[1] = system: abx-promoted swarming P. aeruginosa; assay: c-di-GMP in abx-promoted swarming P. aeruginosa, by LC-MS (Example 8); type: cell-based
Procedure: 3,5-DiMeDβM and 3,5-DiMeDβC was tested by Liquid Chromatography-Mass Spectrometry (LC-MS) to show the effect on c-di-GMP on abx-promoted swarming P. aeruginosa.

[2] = system: phosphodiesterase activity in biofilms of PA strains; type: cell-based; details: bacteria incubated with agent 24-h to form biofilm, lysed, bis-NPP
[3] = system: PAO1 in residual biofilm; assay: cdG by reporter strains versus naturally dispersed PAO1 (Example 7); type: cell-based, Pseudomonas aeruginosa; details: PAO1 in residual biofilm dispersed by agent
[4] = system: PAO1 in residual biofilm; assay: cdG in PAO1 in residual biofilm after dispersal, by reporter strains, GFP/CFP fluorescence (Example 5); type: cell-based, Pseudomonas aeruginosa; details: 40 μM for native and 85 μM for abx-promoted biofilm, dispersed 5-h at 37° C., M9 medium
[5] = system: PAO1 in residual biofilm; assay: cdG in PAO1 in residual biofilm after dispersal, by LC-MS (Example 4); type: cell-based, Pseudomonas aeruginosa; details: PAO1 residual biofilm dispersed by agent, versus original native or abx-promoted biofilm
Procedure: PAO1 in residual biofilm dispersed by 3,5-[…] and 3,5-[…] was tested by Liquid Chromatography-Mass Spectrometry (LC-MS).

[6] = system: PA PAO1 biofilm; assay: Inhibition of PA PAO1 biofilm (FIG. 1); type: cell-based, Pseudomonas aeruginosa; details: compounds at 60 μM

Substance | c-di-GMP on abx-promoted swarming P. aeruginosa (LC-MS) [1] | phosphodiesterase activity [2] | cdG level versus naturally dispersed PAO1 (reporter strains) [3] | cdG level in residual biofilm (reporter strains, GFP/CFP) [4] | cdG level in residual biofilm (LC-MS) [5] | biofilm inhibition [6] [%]
3,5-dimethyl-C12-βC [3,5-DiMeDβC] | increases c-di-GMP | increase phosphodiesterase activity | lower cdG than in naturally dispersed PAO1 | lower cdG than in original native or abx-promoted biofilm | lower cdG than in original native or abx-promoted biofilm | 
3,5-dimethyl-C12-βM [3,5-DiMeDβM] | increases c-di-GMP | increase phosphodiesterase activity | lower cdG than in naturally dispersed PAO1 | lower cdG than in original native or abx-promoted biofilm | lower cdG than in original native or abx-promoted biofilm | > 95
